# Reference: US9814726B2, “Composition for preventing or treating fatty liver diseases” (LG CHEM, LTD., priority 2014, dated 2017)
# Assays:
# [1] = tested on: C57BL/6J Lep(−/−) male (ob/ob) mice; test: Obese fatty liver model: ob/ob mice on normal chow diet, oral treatment for 4 weeks, liver and serum analysis; format: in vivo, mouse
# Description: As experimental animals, 6-week-old male ob/+ mouse for control, and 6-week-old C57BL/6J Lep(−/−) male (ob/ob) mice were purchased from Harlan (Indianapolis, Ind.). The purchased mice were maintained under standard condition (25° C., 55% humidity and 12-hour light periodicity) with normal chow diet. 30 mice were divided into 3 groups, 10 mice in each group. Group 1 included 10 C57BL/6J(ob/+ control group) mice, Group 2 was vehicle-treated 10 ob/ob mice treated with saline solution, and Group 3 was a group in which (tetrahydropyran-4-yl)-[2-phenyl-5-(1,1-dioxo-thiomorpholin-4-yl)methyl-1H-indol-7-yl]amine (LG Life Sciences Ltd., Daejeon, Republic of Korea) was treated once a day by 20 mg/kg dosage. Saline solution and (tetrahydropyran-4-yl)-[2-phenyl-5-(1,1-dioxo-thiomorpholin-4-yl)methyl-1H-indol-7-yl]amine solution were orally administered for 4 weeks. After treatment, animals were anesthetized and sacrificed, and livers were rapidly taken and stored for the next analysis. […]
# ob/ob mice with MCD diet = test: Steatohepatitis model accompanying obesity: ob/ob mice with MCD (methionine choline-deficient) diet; format: in vivo, mouse
# [2] = ob/ob mice, 20 mg/kg/day, FIG. 2
# [3] = ob/ob mice, oral 20 mg/kg once a day, 4 weeks, p<0.001 vs vehicle
# [4] = ob/ob mice, oral 20 mg/kg once a day, 4 weeks, vs vehicle
# [5] = 20 mg/kg/day, vs vehicle-treated group, FIG. 5A/5B
compound,measurement,setting,value
"O=S1(=O)CCN(Cc2cc(NC3CCOCC3)c3[nH]c(-c4ccccc4)cc3c2)CC1 [Comp., (tetrahydropyran-4-yl)-[2-phenyl-5-(1,1-dioxo-thiomorpholin-4-yl)methyl-1H-indol-7-yl]amine]","activation of the mitochondrial respiration chain complexes I, III, IV and V","[1]; ob/ob mice liver, 20 mg/kg/day, FIG. 3",meaningfully increased
same,"OXPHOS complexes I, III, IV and V by BN-PAGE: binding between the complexes","[1]; ob/ob mice treated for 4 weeks, 20 mg/kg/day",enhanced
same,"amount of TBARS (oxidative stress, lipid oxidation)",[1]; [2],significant decrease
same,level of 3-NT (nitrotyrosine) in liver,[1]; [2],considerably decreased
same,amount of TNF-alpha in minced liver samples (ELISA),"[1]; ob/ob mice, 20 mg/kg/day, FIG. 4B",significantly low amount
same,"expression of liver mitochondrial complex I, III, IV and V","[1]; ob/ob mice, 20 mg/kg/day, compared with ob/+ control group, FIG. 3A",remained up to the level of the control group
same,expression of mRNA of TNF-α in the liver,"[1]; ob/ob mice, 20 mg/kg/day, vs vehicle",inhibited
same,amount of IL-6 mRNA,"[1]; ob/ob mice, 20 mg/kg/day, vs vehicle group",no difference
same,number of 8-OHdG positive liver cells (DNA damage by oxidative stress),"[1]; ob/ob mice, 20 mg/kg/day, vs vehicle, FIG. 2",remarkably low
same,"phosphorylation of NF-κB p65, NF-κB p105, p38 and JNK 1/2 in liver (immunoblotting)","[1]; ob/ob mice, 20 mg/kg/day, vs vehicle, FIG. 4A",significantly decreased
same,inflammation reaction: infiltration of activated macrophages in liver (immune staining of F4/80 and Cd68),"[1]; ob/ob mice, 20 mg/kg/day, vs vehicle, FIG. 4C and 4D",decreased
same,fatty tissue in liver (H&E staining),"[1]; ob/ob mice, oral 20 mg/kg once a day, 4 weeks, FIG. 1",remarkably decreased
same,TG level in the blood serum,"[1]; ob/ob mice, oral 20 mg/kg once a day, 4 weeks, between groups (data not shown)",did not show much difference
same,amount of liver TG,[1]; [3],significant decrease
same,amount of liver cholesterol,[1]; [3],significant decrease
same,ALT value in blood serum,[1]; [4],decreased
same,AST value in blood serum,[1]; [4],decreased
same,Oil-Red O stained area in liver,"[1]; ob/ob mice, oral 20 mg/kg once a day, 4 weeks, vs vehicle-treated group",remarkably decreased
same,amount of ALT in blood serum,ob/ob mice with MCD diet; 20 mg/kg/day,remarkably decreased
same,amount of AST in blood serum,ob/ob mice with MCD diet; 20 mg/kg/day,remarkably decreased
same,liver TG amount,"ob/ob mice with MCD diet; 20 mg/kg/day (vehicle 400+/−80), FIG. 5C",210+/−20 mg/g liver
same,"phosphorylation of fibrosis markers (NF-γB p65, NF-κB p105, p38 and JNK 1/2)","ob/ob mice with MCD diet; 20 mg/kg/day, FIG. 5D",inhibited
same,decrease of liver TG amount,"ob/ob mice with MCD diet; 20 mg/kg/day, vs vehicle, FIG. 5C",about 50%
same,expression of collagen I (liver fibrosis),ob/ob mice with MCD diet; [5],inhibited
same,intensity of trichrome staining (liver fibrosis),ob/ob mice with MCD diet; [5],inhibited
